Experimental data taken from patent US7960369B2, “Receptor function regulator” (Takeda Pharmaceutical Company Limited, priority 2002, dated 2011).

Key:
[1] = test system: siRNA-introduced MIN6 cell; assay: Insulin secretion enhancing activity of fatty acid in siRNA-introduced MIN6; assay type: cell-based, mouse
Description: The expression amount of mouse GPR40-GFP was detected by the following enzyme immunoassay. The culture supernatant was discarded, washed with HBSS (Invitrogen), fixed with 0.01% glutaraldehyde (Wako Pure Chemical Industries, Ltd.) for 5 min., and blocked with PBS (TAKARA SHUZO) containing 2% BSA. 500-fold diluted anti-GFP monoclonal antibody 3E6 (NIPPON GENE CO., LTD.) was added and the cells were incubated at room temperature for 2 hrs., washed and 500-fold diluted HRP-labeled anti-mouse IgG antibody (ICN) was added, and the cells were incubated at room temperature for 2 hrs. After washing, TMB microwell peroxydase substrate (Funakoshi) was added and, after incubation for 30 min., sulfuric acid was added to stop the color developing reaction, and the absorbance at 450 nm was measured.
(§1) Mouse pancreatic β cell line MIN6 cultured in a flask was detached with PBS containing 2.5 mM EDTA, and seeded and incubated in a 96 well plate for 2 days. The medium used was obtained by adding 15% fetal bovine serum (ThermoTrace), […] 2-mercaptoethanol (Invitrogen), 20 mM HEPES pH 7.3, 100 U/ml penicillin and 100 μg/ml streptomycin to Dulbecco's Modified Eagle Medium (DMEM, Invitrogen) containing 4.5 g/l of glucose. The cells were washed twice with modified Krebs-Ringer bicarbonate buffer (KRBH, 116 mM NaCl, 4.7 mM KCl, 1.2 mM KH2PO4, 1.2 mM MgSO4, 2.5 mM CaCl2, 25 mM NaHCO3, 24 mM HEPES pH 7.3) and preincubated at 37° C. under 5% CO2 conditions for 30 min. Fatty acid diluted and prepared with a buffer obtained by adding 22 mM glucose to the above-mentioned KRBH was added to the cell after preincubation and the cells were incubated at 37° C. under 5% CO2 conditions for 90 min. After incubation, the cell supernatant was recovered and cryopreserved. The insulin content of the supernatant was measured using a commercially available insulin immunoassay kit (Amersham Pharmacia Biotech).
Insulin secretion enhancing activity in MIN6 cell, into which m40i103 was introduced using HVJ Envelope VECTOR KIT GenomONE based on the method of Experimental Example 5, was examined. The insulin secretion enhancing activity by fatty acid was examined by the method of Experimental Example 6.

[2] = test system: mouse pancreatic β cell line MIN6; assay: Promotion of insulin secretion from MIN6 (insulin immunoassay); assay type: cell-based; conditions: MIN6, KRBH with 22 mM glucose, 90 min
Description: as §1
as §1, with “(KBH,” for “(KRBH,”, “The compound” for “Fatty acid”

human-derived GPR40 = target: T1, human-derived GPR40 (Homo sapiens, UniProt O14842); assay: Reactivity of fatty acid to human-derived GPR40, intracellular calcium by FLIPR in transfected CHO-K1 cells; assay type: cell-based; conditions: for response (increase in intracellular calcium concentration) of CHO-K1 cell expressing the GPR40 receptor: added at 10^−5M-10^−6M, FLIPR, control-vector cells showed no response; for activity in intracellular calcium ion mobilization assay using CHO cell expressing GPR40 (GPR40 agonistic activity): as stated in Experimental Example 6
T1 construct: expressed in transfected cells; host or cells: CHO-K1, transient transfection with lipofectamine
T1 sequence (O14842 whole entry): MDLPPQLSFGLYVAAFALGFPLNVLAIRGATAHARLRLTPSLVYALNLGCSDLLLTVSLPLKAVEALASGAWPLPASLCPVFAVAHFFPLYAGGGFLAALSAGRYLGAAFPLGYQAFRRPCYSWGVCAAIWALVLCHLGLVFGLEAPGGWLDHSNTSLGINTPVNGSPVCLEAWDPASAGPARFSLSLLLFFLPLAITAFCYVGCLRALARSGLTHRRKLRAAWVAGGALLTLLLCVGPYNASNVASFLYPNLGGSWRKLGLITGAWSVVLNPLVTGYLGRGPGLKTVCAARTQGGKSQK
Description: Unless specifically indicated, CHO-K1 cell line was cultured using Ham's F-12 medium (Invitrogen) containing 10% fetal calf serum (Invitrogen). The day before transfection, 4.5×10^5 per 10 cm^2 of cells were seeded, and incubated at 37° C. for not less than 15 hrs in a CO2 incubator adjusted to 5% CO2 concentration. The transfection was performed using a lipofectamine reagent (Invitrogen) and according to the reagent attached method. When a 6-well plate was used for a culture plate, transfection was performed in the following manner. First two 1.5 ml volume tubes were prepared, and 100 μl of Opti-MEM-I medium (Invitrogen) was dispensed. Then, […] of an expression vector was added to one tube and 6 μl of a lipofectamine reagent was added to the other tube. They were mixed and stood still at room temperature for 20 min. A mixed solution for transfection containing this solution and Opti-MEM-I medium (800 μl) was added to CHO-K1 cell previously washed with Opti-MEM-I medium, and incubated in a CO2 incubator for 6 hrs. The incubated cells were rinsed with PBS (Invitrogen), detached with 0.05% trypsin-EDTA solution (Invitrogen), recovered by centrifugation. The obtained cells were counted, diluted such that 5×10^4 cells were contained per 200 μl of the medium, dispensed to black walled 96-well plate (Costar) at 200 μl per well, incubated overnight in a CO2 incubator. Various test samples were added to CHO-K1 cells transiently expressing the receptor by the above-mentioned transfection step, and changes in the intracellular calcium concentration then was measured using FLIPR (Molecular Device). For measurement of changes in intracellular calcium concentration by FLIPR, the following pretreatment was applied. First, an assay buffer for adding fluorescence dye Fluo-3AM (DOJIN) to the cell, or washing the cell immediately before FLIPR assay was prepared. To a solution (hereinafter HBSS/HEPES solution) obtained by adding 20 ml of 1M HEPES (pH 7.4) (DOJIN) to 1000 ml of HBSS (Invitrogen) was added a solution (10 ml) obtained by dissolving probenecid (710 mg, Sigma) in 1N NaOH (5 ml) and adding and mixing with HBSS/HEPES solution (5 ml) and the obtained solution was used as an assay buffer. Then, Fluo-3AM (50 μg) was dissolved in 21 μl of DMSO (DOJIN), and an equal amount of 20% pluronic acid (Molecular Probes) was added. The mixture was added to an assay buffer (10.6 ml) supplemented with 105 μl of fetal calf serum to give a fluorescence dye solution. The medium of the CHO-KL cell after transfection treatment was removed, a fluorescence dye solution was immediately dispensed at 100 μl per well and incubated in a CO2 incubator for 1 hr to incorporate the fluorescence dye into the cell. The incubated cells were washed with the above-mentioned assay buffer and set on FLIPR. The test sample to be added to receptor expressing CHO-KL cell was prepared using the assay buffer and simultaneously set on FLIPR. After the above-mentioned pretreatment, changes in the intracellular calcium concentration after addition of various test samples were measured by FLIPR.

human GPR40 = target: T2, human GPR40 (Homo sapiens, UniProt O14842); assay: Effect of regulation of GPR40 receptor function (agonistic effect), intracellular calcium by FLIPR; assay type: cell-based; conditions: CHO cell line (No. 104) expressing human GPR40, fluorescence intensity at 30 sec after start of reaction
T2 construct: expressed in transfected cells; host or cells: CHO cell line CHO-hGPR40 No. 104 (pAKKO-111 vector)
T2 sequence (O14842 whole entry): as above
Description: CHO cell line (No. 104) made to express human GPR40 was diluted such that 3×10^4 cells/100 μL were contained, dispensed to a black walled 96-well plate (Costar) at 100 μL per well, and incubated overnight in a CO2 incubator. The changes in the intracellular calcium concentration were measured using FLIPR (Molecular Device). The method is described in the following.
Fluo-3AM (DOJIN) (50 μg) was dissolved in 21 μl DMSO (DOJIN), and an equal amount of 20% pluronic acid (Molecular Probes) was added and mixed, and the mixture was added to 10.6 ml of an assay buffer [prepared by adding 20 ml of 1M HEPES (pH 7.4) (DOJIN) to 1 L of HBSS (Invitrogen), and adding a mixed solution (10 ml) obtained by dissolving probenecid (Sigma) (710 mg) in 1N NaOH (5 ml) and adding and mixing with the above-mentioned HBSS/HEPES solution (5 ml)] supplemented with 105 μl of fetal calf serum to give a fluorescence dye solution. The medium in the cell plate was removed, a fluorescence dye solution was immediately dispensed at 100 μl per well, and incubated in a CO2 incubator for 1 hr to incorporate fluorescence dye into the cell. The incubated cells were washed with the above-mentioned assay buffer. The compound to be added to the cell was diluted with the assay buffer to each concentration and dispensed to a test sample plate. After the above-mentioned pretreatment, changes in the intracellular calcium concentration after addition of the compound was measured by FLIPR, and the agonistic effect was examined. EC50 value was calculated from a dose response curve based on the changes in the fluorescence intensity value at 30 sec after the start of the reaction.

CCCCC/C=C\C/C=C\CCCCCCCC(=O)O [linoleic acid]
insulin secretion enhancing activity of fatty acid ([1]; MIN6 into which GPR40 specific siRNA m40i103 was introduced): no longer showed insulin secretion enhancing activity | insulin secretion enhancing activity of fatty acid ([1]; MIN6 into which random sequence Scramble II duplex siRNA was introduced): retention of the insulin secretion enhancing activity | insulin secretion enhancing activity [2]: significant insulin secretion enhancing activity | response (increase in intracellular calcium concentration) of CHO-K1 cell expressing the GPR40 receptor (human-derived GPR40): specifically responds | activity in intracellular calcium ion mobilization assay using CHO cell expressing GPR40 (GPR40 agonistic activity) (human-derived GPR40): remarkable activity

CN(Cc1ccc(C(=O)Nc2ccc(CCC(=O)O)cc2)cc1)c1nc(-c2ccccc2)cs1 [Reference Example 15, 4-[[4-[[methyl(4-phenyl-2-thiazolyl)amino]methyl]benzoyl]amino]benzenepropanoic acid]
EC50 (human GPR40): 1200 nM

CCCCC/C=C\C/C=C\C/C=C\C/C=C\CCCCCC(=O)O [adrenic acid]
response (increase in intracellular calcium concentration) of CHO-K1 cell expressing the GPR40 receptor (human-derived GPR40): specifically responds

CCCC(=O)O [butyric acid]
insulin secretion enhancing activity [2]: did not show a significant insulin secretion enhancing activity | activity in intracellular calcium ion mobilization assay using CHO cell expressing GPR40 (GPR40 agonistic activity) (human-derived GPR40): no GPR40 agonistic activity

eicosatrienoic acid
response (increase in intracellular calcium concentration) of CHO-K1 cell expressing the GPR40 receptor (human-derived GPR40): specifically responds

CCCCC/C=C\C/C=C\C/C=C\C/C=C\CCCC(=O)O [arachidonic acid]
insulin secretion enhancing activity [2]: significant insulin secretion enhancing activity | response (increase in intracellular calcium concentration) of CHO-K1 cell expressing the GPR40 receptor (human-derived GPR40): specifically responds | activity in intracellular calcium ion mobilization assay using CHO cell expressing GPR40 (GPR40 agonistic activity) (human-derived GPR40): remarkable activity

CCCCC/C=C\C/C=C\CCCCCCCC(=O)OC [methyl linolate]
insulin secretion enhancing activity [2]: did not show a significant insulin secretion enhancing activity | activity in intracellular calcium ion mobilization assay using CHO cell expressing GPR40 (GPR40 agonistic activity) (human-derived GPR40): no GPR40 agonistic activity

CC/C=C\C/C=C\C/C=C\CCCCCCCC(=O)O [α-linolenic acid]
insulin secretion enhancing activity [2]: significant insulin secretion enhancing activity | activity in intracellular calcium ion mobilization assay using CHO cell expressing GPR40 (GPR40 agonistic activity) (human-derived GPR40): remarkable activity

O=C(O)CCc1ccc(OCc2ccc(-c3ccccc3)cc2)cc1 [Example 7, 4-([1,1′-biphenyl]-4-ylmethoxy)benzenepropanoic acid]
EC50 (human GPR40): 130 nM

docosatrienoic acid
response (increase in intracellular calcium concentration) of CHO-K1 cell expressing the GPR40 receptor (human-derived GPR40): specifically responds

eicosadienoic acid
response (increase in intracellular calcium concentration) of CHO-K1 cell expressing the GPR40 receptor (human-derived GPR40): specifically responds

O=C(O)CCc1ccc(OCc2ccc(OCc3ccccc3)cc2)cc1 [Example 6, 4-[[4-(phenylmethoxy)phenyl]methoxy]benzenepropanoic-acid]
EC50 (human GPR40): 160 nM

O=C(O)CCc1ccc(OC2CCCc3ccccc32)cc1 (stereo not shown) [Example 2, 4-[(1,2,3,4-tetrahydronaphthalen-1-yl)oxy]benzenepropanoic acid]
EC50 (human GPR40): 170 nM

CCCCCCCCC#CCC#CCC#CCCCC(=O)O [5.8.11-eicosatriynoic acid]
response (increase in intracellular calcium concentration) of CHO-K1 cell expressing the GPR40 receptor (human-derived GPR40): specifically responds

O=C(O)CCc1ccc(OCc2ccccc2)cc1 [Reference Example 2, 4-(phenylmethoxy)benzenepropanoic acid]
EC50 (human GPR40): 320 nM

CCCCCCCCCCCC(=O)O [lauric acid]
response (increase in intracellular calcium concentration) of CHO-K1 cell expressing the GPR40 receptor (human-derived GPR40): specifically responds

O=C(O)CCc1ccc(OCCCc2ccccc2)cc1 [Reference Example 6, 4-(3-phenylpropoxy)benzenepropanoic acid]
EC50 (human GPR40): 460 nM

CC(C)=CCCC(C)=CCCC(C)=CC(=O)O [farnesoic acid]
response (increase in intracellular calcium concentration) of CHO-K1 cell expressing the GPR40 receptor (human-derived GPR40): specifically responds

CCCCCC#CCC#CCC#CCC#CCCCC(=O)O [5.8.11.14-eicosatetraynoic acid]
response (increase in intracellular calcium concentration) of CHO-K1 cell expressing the GPR40 receptor (human-derived GPR40): specifically responds
